Values quoted from earlier work, collected in publication PMC3816732, “Database-Guided Discovery of Potent Peptides to Combat HIV-1 or Superbugs” (Pharmaceuticals, 2013).
pEC50: −log10 of the molar value. Entries after “also recorded” stand apart in the source; their conditions may differ. Read-outs that look alike come from different tables or passages of the source. Bridges are numbered along the chain shown (N, C = ends). Where no end group is shown, it is not given here.

Experiments:
[1] = tested on: Staphylococcus aureus USA300 LAC; set-up: method as in 2 sources, ref 52, 53 = [52]; PMID 20086159; doi:10.1128/AAC.01448-09; 52. Wang G. Watson K.M. Peterkofsky A. Buckheit R.W. Jr. Identification of novel human immunodeficiency virus type 1 inhibitory peptides based on the antimicrobial peptide database Antimicrob. Agents || [53]; PMID 22445495; doi:10.1016/j.ijantimicag.2012.02.003; 53. Menousek J. Mishra B. Hanke M.L. Heim C.E. Kielian T. Wang G. Database screening and in vivo efficacy of antimicrobial peptides against methicillin-resistant Staphylococcus aureus USA300 Int. J. A ||| ref 55 = [55]; PMID 22803960; doi:10.1021/ja305644e; 55. Mishra B. Wang G. Ab initio design of potent anti-MRSA peptides based on database filtering technology J. Am. Chem. Soc. 2012 134 12426 12429 10.1021/ja305644e 22803960 PMC3412535; settings: for S. aureus USA300 (MIC, μM): S. aureus USA300 LAC (MRSA), database screening; for activity against S. aureus USA300 (MRSA), in words: database-screened peptides
Excerpt: In fact, the annual frequency of deaths from MRSA is rapidly increasing and has surpassed those caused by HIV/AIDS. Therefore, there is a need to develop new treatments to control MRSA. To identify new compounds against MRSA USA300 LAC, we also assayed the antibacterial activity of the same 30 peptides used for screening anti-HIV-1 peptides above. […] For example, proline-rich AMPs are known to interact with bacterial heat shock proteins.

Bacillus subtilis = settings: database-screened peptides
Excerpt: [The procedure below names another organism; the source lists this organism under the same test.] (§1) The spread of MRSA from the clinical setting to the communities is worrisome. In fact, the annual frequency of deaths from MRSA is rapidly increasing and has surpassed those caused by HIV/AIDS. Therefore, there is a need to develop new treatments to control MRSA. To identify new compounds against MRSA USA300 LAC, we also assayed the antibacterial activity of the same 30 peptides used for screening anti-HIV-1 peptides above. […] We referred to this unique method as ab initio design to distinguish it from the de novo methods above. Our design comprises two major modules. The first module consists of an activity filter that allows us to obtain a list of peptides with desired activity (e.g., antibacterial, antifungal, antiviral, antiparasitic, or anticancer). To obtain compounds to kill S. aureus, we retrieved all AMPs with activity against Gram-positive bacteria as model peptides. The second module is composed of a series of parameter filters ...

Pseudomonas aeruginosa = settings: database-screened peptides
Excerpt: [The procedure below names another organism; the source lists this organism under the same test.] as §1

Escherichia coli = settings: database-screened peptides
Excerpt: as §1, with “... || As a second example, we also aimed to identify the minimal active region in a longer peptide. Human cathelicidin LL-37 is a 37-residue peptide starting with a pair of leucines. Our studies produced a library of model peptides with distinct antimicrobial activity. KR-12 is identified as the minimal antibacterial peptide corresponding to residues 18–29 of human LL-37. It is active against E. coli but not HIV-1 [56, 71]. However, FK-13, a core antimicrobial peptide with one more phenylalanine at the N-terminus than KR-12 [72], is active against both HIV-1 and E. coli.” for “...”

HIV-1 = tested on: HIV-1
Excerpt: For example, proline-rich AMPs are known to interact with bacterial heat shock proteins.

E. coli K12 = tested on: E. coli K12; set-up: method as in 5 sources, ref [9] = [9]; PMID 18957441; doi:10.1093/nar/gkn823; 9. Wang G. Li X. Wang Z. The updated antimicrobial peptide database and its application in peptide design Nucleic Acids Res. 2009 37 D933 D937 10.1093/nar/gkn823 18957441 PMC2686604 ||| ref [52] = [52]; PMID 20086159; doi:10.1128/AAC.01448-09; 52. Wang G. Watson K.M. Peterkofsky A. Buckheit R.W. Jr. Identification of novel human immunodeficiency virus type 1 inhibitory peptides based on the antimicrobial peptide database Antimicrob. Agents ||| ref [54] = [54]; doi:10.4172/2155-6113.S2-003; 54. Wang G. Buckheit K.W. Mishra B. Lushnikova T. Buckheit R.W. Jr. De Novo Design of Antiviral and Antibacterial Peptides with Varying Loop structures J. AIDS Clin. Res. 2011 S2:003 10.4172/2155-6113 ||| ref 9, 52, 54 = [9]; PMID 18957441; doi:10.1093/nar/gkn823; 9. Wang G. Li X. Wang Z. The updated antimicrobial peptide database and its application in peptide design Nucleic Acids Res. 2009 37 D933 D937 10.1093/nar/gkn823 18957441 PMC2686604 || [52]; PMID 20086159; doi:10.1128/AAC.01448-09; 52. Wang G. Watson K.M. Peterkofsky A. Buckheit R.W. Jr. Identification of novel human immunodeficiency virus type 1 inhibitory peptides based on the antimicrobial peptide database Antimicrob. Agents || [54]; doi:10.4172/2155-6113.S2-003; 54. Wang G. Buckheit K.W. Mishra B. Lushnikova T. Buckheit R.W. Jr. De Novo Design of Antiviral and Antibacterial Peptides with Varying Loop structures J. AIDS Clin. Res. 2011 S2:003 10.4172/2155-6113 ||| ref 9, 54 = [9]; PMID 18957441; doi:10.1093/nar/gkn823; 9. Wang G. Li X. Wang Z. The updated antimicrobial peptide database and its application in peptide design Nucleic Acids Res. 2009 37 D933 D937 10.1093/nar/gkn823 18957441 PMC2686604 || [54]; doi:10.4172/2155-6113.S2-003; 54. Wang G. Buckheit K.W. Mishra B. Lushnikova T. Buckheit R.W. Jr. De Novo Design of Antiviral and Antibacterial Peptides with Varying Loop structures J. AIDS Clin. Res. 2011 S2:003 10.4172/2155-6113; settings: for MIC: peptide potency against E. coli K12
Excerpt: Our initial attempt was a stepwise design based on the bioinformatics results from our database.

Staphylococcal biofilm = settings: catheter embedded in mice
[2] = tested on: herpes simplex virus type-2 (HSV-2); set-up: method as in doi:10.4172/2155-6113.S2-003
Excerpt: These GLRC peptides (Table 3) are made of only amino acids G, L, R, and C. […] O ...

[3] = peptide potency against HIV-1, database-guided designed peptides

Substance	S. aureus USA300 (MIC, μM) [1] [µM]	activity against S. aureus USA300 (MRSA), in words [1]	activity against B. subtilis, in words (Bacillus subtilis)	activity against P. aeruginosa, in words (Pseudomonas aeruginosa)	activity against E. coli, in words (Escherichia coli)	pEC50 (HIV-1; [3])	MIC (E. coli K12) [µM]	other results
Piscidin 1	3.1	effective	active	active	active	–	–	activity against S. aureus USA300 (MRSA), in words ([1]; listed as piscidin 1): active
GCRRLCGRLGRRLCRLLCR (also: bicyclic or more (positions not given here)) [GLRC-4]	–	–	–	–	–	4.51	60	Stability (% left) (chymotrypsin; stability to the action of chymotrypsin): 9.7 % left
drosocin [reference compound]	–	–	–	–	–	–	–	activity against HIV-1, in words (HIV-1): did not show any activity
GLKKLLGKLLKKLGKLLLK [GLK-19, 19-residue peptide containing only G, L, and K]	–	–	–	–	–	< 4.32	10	activity against HIV-1, in words (HIV-1; GLK/GLR/GLRC designed peptides): not
Maculatin 1.3	6.2	active	active	not	not	–	–	–
GLRRLLGRLLRRLGRLLLR [GLR-19]	–	–	–	–	–	5.36	>120	activity against HIV-1, in words (HIV-1; GLK/GLR/GLRC designed peptides): HIV-1 inhibitory; activity against E. coli, in words (E. coli K12; GLK/GLR designed peptides): lost activity; Stability (% left) (chymotrypsin): 14.5 % left
IKWKKLLRAAKRIL-NH2 [DASamP2, derivative of polybia-MPI, […]-amide]	6.2	active	active	active	active	–	–	–
FFGKVLKLIRKIF-NH2 [DASamP1]	3.1	active; also recorded: effective	not	not	not	–	–	activity against HIV-1, in words (HIV-1): effective; pEC50 (HIV-1; read-out: HIV-1 (EC50)): 6.20; prevention of Staphylococcal biofilm formation (Staphylococcal biofilm): able to prevent Staphylococcal biofilm formation
Ponericin L2 [reference compound]	–	–	–	–	–	–	–	pEC50 (HIV-1; read-out: HIV-1 (EC50), database screening of 30 APD peptides): 5.85
GLRRLCGRLGRRLCRLLLR (disulfide 6-14 (inferred)) [GLRC-3]	–	–	–	–	–	5.55	7.5	Stability (% left) (chymotrypsin): 1.4 % left
Ascaphin-8	3.1	effective	active	active	active	–	–	activity against HIV-1, in words (HIV-1): effective; pEC50 (HIV-1; read-out: HIV-1 (EC50)): 5.92; activity against S. aureus USA300 (MRSA), in words ([1]; listed as Aascaphin-8): active
GLRCRLGRLLRRLGRCLLR (disulfide 4-16 (inferred)) [GLRC-2]	–	–	–	–	–	6.10	30	activity against HIV-1, in words (HIV-1; GLK/GLR/GLRC designed peptides): most effective; inhibitory effect on HSV-2 [2]: inhibitory effect; Stability (% left) (chymotrypsin): 63.3 % left; stability to the action of chymotrypsin, in words (chymotrypsin): most stable
Lycotoxin I: spider antimicrobial peptide (IWLTALKFLGKHAAKHLAKQQLSKL; UniProt P61507 1-25, looked up)	3.1	active	active	active	active	–	–	–
GCRRLLGRLLRRLGRLLCR (disulfide 2-18 (inferred)) [GLRC-1]	–	–	–	–	–	< 4.36	30	Stability (% left) (chymotrypsin): 20.8 % left
